This is an account of results in ChEMBL document CHEMBL3112467, “In vitro phenotypic screening of 7-chloro-4-amino(oxy)quinoline derivatives as putative anti-Trypanosoma cruzi agents” (Bioorg Med Chem Lett, 2014).

Series [1] can be described thus: Selectivity index, ratio of LC50 for mouse NCTC-929 cells to IC50 for epimastigote stage of Trypanosoma cruzi CL Brener. Type of series: toxicity, cell-based. Conditions: read-out: Ratio LC50/IC50.
A short description of series [2]: Cytotoxicity against mouse NCTC-929 cells after 48 hrs by resazurin staining-based fluorescence assay. The format is cell-based. The conditions noted are these: read-out: LC50.
Series [3] in a line: Cytotoxicity against mouse NCTC-929 cells at […] after 48 hrs by resazurin staining-based fluorescence assay. Type of series: cell-based. The conditions noted are these: read-out: INH.
The test system of series [4] is Trypanosoma cruzi. Briefly: Antimicrobial activity against epimastigote stage of Trypanosoma cruzi CL Brener assessed as growth inhibition after 72 hrs by beta-galactosidase reporter gene assay. The format is functional, organism-based.
In series [5] the test system is Trypanosoma cruzi. As to the kind of experiment: Antimicrobial activity against epimastigote stage of Trypanosoma cruzi CL Brener assessed as growth inhibition at […] after 72 hrs by beta-galactosidase reporter gene assay. The conditions noted are these: read-out: GI. Type of series: functional.
Series [6] deals with Trypanosoma cruzi. As to the kind of experiment: Antimicrobial activity against amastigote stage of Trypanosoma cruzi CL Brener infected in mouse NCTC-929 cells assessed as growth inhibition after 7 days by beta-galactosidase reporter gene assay. Type of series: functional, organism-based. The conditions noted are these: NCTC-929, 168 h.
The subject of series [7] is Trypanosoma cruzi. Briefly: Antimicrobial activity against amastigote stage of Trypanosoma cruzi CL Brener infected in mouse NCTC-929 cells assessed as growth inhibition at 0.5 uM after 7 days by beta-galactosidase reporter gene assay. The format is functional. Conditions: NCTC-929, 168 h, read-out: GI.
Series [8] deals with Trypanosoma cruzi. As to the kind of experiment: Antimicrobial activity against amastigote stage of Trypanosoma cruzi CL Brener infected in mouse NCTC-929 cells assessed as growth inhibition at 1 uM after 7 days by beta-galactosidase reporter gene assay. Conditions: NCTC-929, 168 h, read-out: GI. The format is functional.
Series [9] has as its system Trypanosoma cruzi. As to the kind of experiment: Antimicrobial activity against amastigote stage of Trypanosoma cruzi CL Brener infected in mouse NCTC-929 cells assessed as growth inhibition at 2 uM after 7 days by beta-galactosidase reporter gene assay. The format is functional. Conditions: NCTC-929, 168 h, read-out: GI.
Series [10] has as its system Trypanosoma cruzi. As to the kind of experiment: Antimicrobial activity against amastigote stage of Trypanosoma cruzi CL Brener infected in mouse NCTC-929 cells assessed as growth inhibition at 4 uM after 7 days by beta-galactosidase reporter gene assay. Type of series: functional. Conditions: NCTC-929, 168 h, read-out: GI.
Series [11] has as its system Trypanosoma cruzi. Briefly: Antimicrobial activity against amastigote stage of Trypanosoma cruzi CL Brener infected in mouse NCTC-929 cells assessed as growth inhibition at 8 uM after 7 days by beta-galactosidase reporter gene assay. Type of series: functional. The conditions noted are these: NCTC-929, 168 h, read-out: GI.
Series [12] deals with Trypanosoma cruzi. As to the kind of experiment: Antimicrobial activity against amastigote stage of Trypanosoma cruzi CL Brener infected in mouse NCTC-929 cells assessed as growth inhibition at 16 uM after 7 days by beta-galactosidase reporter gene assay. Conditions: NCTC-929, 168 h, read-out: GI. The format is functional.
The subject of series [13] is Trypanosoma cruzi. Briefly: Antimicrobial activity against amastigote stage of Trypanosoma cruzi CL Brener infected in mouse NCTC-929 cells assessed as growth inhibition at 32 uM after 7 days by beta-galactosidase reporter gene assay. The format is functional. The conditions noted are these: NCTC-929, 168 h, read-out: GI.
Another series in a line: in vitro. The conditions noted are these: mouse, NCTC-929 cells.

Description for in vitro: Selectivity index, ratio of LC50 for mouse NCTC-929 cells to IC50 for amastigote stage of Trypanosoma cruzi CL Brener infected in mouse NCTC-929 cells

Take `Clc1ccc2c(NCc3ccccc3)ccnc2c1`: in series [1], the selectivity ratio is 3.71. Also, the CC50 at 48 h in series [2] was determined as 2.28 µM. Besides, the cytotoxicity at 48 h, […] in series [3] was found to be 71.4%. The IC50 in the series on Trypanosoma cruzi [4] came out at 6.55 µM. In addition, in the series with Trypanosoma cruzi [5], the inhibition of growth at […] is 95.1%.

Turning to `CC1CS(=O)(=O)CCN1/N=C/c1ccc([N+](=O)[O-])o1` (stereo unspecified) [NIFURTIMOX], in the series on Trypanosoma cruzi [6], the IC50 was < 0.5 µM. The inhibition of growth at 0.5 µM in the series on Trypanosoma cruzi [7] is 96.5%. For the same molecule, the inhibition of growth at 1 µM in the series with Trypanosoma cruzi [8] came to 100%. In addition, the inhibition of growth at 2 µM with Trypanosoma cruzi [9] came out at 100%. Moreover, the inhibition of growth at 4 µM with Trypanosoma cruzi [10] worked out at 100%. Besides, the inhibition of growth at 8 µM in the series on Trypanosoma cruzi [11] stood at 100%. Also, the inhibition of growth at 16 µM in the series on Trypanosoma cruzi [12] came to 100%. Moreover, in the series on Trypanosoma cruzi [13], the inhibition of growth at 32 µM turned out to be 100%. For the same molecule, the cytotoxicity at 48 h, […] in series [3] worked out at 26.8%. The inhibition of growth at […] with Trypanosoma cruzi [5] worked out at 100%.

In the case of `O=C(Cn1ccnc1[N+](=O)[O-])NCc1ccccc1` [BENZNIDAZOLE], in the series with Trypanosoma cruzi [7], the inhibition of growth at 0.5 µM was 41.6%. Also, the inhibition of growth at 1 µM in the series on Trypanosoma cruzi [8] came to 55.6%. The inhibition of growth at 2 µM in the series on Trypanosoma cruzi [9] is 64.4%. Besides, in the series with Trypanosoma cruzi [10], the inhibition of growth at 4 µM was found to be 74.7%. For the same molecule, the inhibition of growth at 8 µM with Trypanosoma cruzi [11] was 96.6%. Moreover, the inhibition of growth at 16 µM with Trypanosoma cruzi [12] came out at 100%. Besides, in the series with Trypanosoma cruzi [13], the inhibition of growth at 32 µM was 100%. Further, the selectivity ratio in series [1] is > 9.44; in “in vitro” it was > 320. In series [2], the CC50 at 48 h is > 256 µM. Moreover, the cytotoxicity at 48 h, […] in series [3] turned out to be 17.4%. Moreover, the inhibition of growth at […] in the series with Trypanosoma cruzi [5] turned out to be 82%.

Regarding `O=C1CSC(c2ccc3c(c2)OCO3)N1CCNc1ccnc2cc(Cl)ccc12` (stereo unspecified), the selectivity ratio in [1] was determined as 2.85. Moreover, in series [2], the CC50 at 48 h worked out at 19.5 µM. The IC50 with Trypanosoma cruzi [4] was determined as 6.84 µM. Further, the inhibition of growth at […] in the series with Trypanosoma cruzi [5] is 84.3%.
